Results: publication PMC11352859, “Functionalized Congeners of 2H-Chromene P2Y6 Receptor Antagonists” (Cells, 2024)
Several values for one entry are separate records, joined by “and”; a condition that tells them apart may be missing. Equal values may be shown once. Read-outs that look alike come from different tables or passages of the source.

What was measured:
rP2Y6 = settings: Figure 1; ref [33]; cited from earlier work
α2A [1] = biological target: T1, α2A (Homo sapiens, UniProt P08913); design: method as in Jung et al., 2021 and 2022 [30],[40]; settings: PDSP; ref Jung et al., 2021 and 2022 [30],[40]; cited from earlier work
T1 construct: NIMH Psychoactive Drug Screening Program (PDSP)
T1 sequence (P08913 1-465): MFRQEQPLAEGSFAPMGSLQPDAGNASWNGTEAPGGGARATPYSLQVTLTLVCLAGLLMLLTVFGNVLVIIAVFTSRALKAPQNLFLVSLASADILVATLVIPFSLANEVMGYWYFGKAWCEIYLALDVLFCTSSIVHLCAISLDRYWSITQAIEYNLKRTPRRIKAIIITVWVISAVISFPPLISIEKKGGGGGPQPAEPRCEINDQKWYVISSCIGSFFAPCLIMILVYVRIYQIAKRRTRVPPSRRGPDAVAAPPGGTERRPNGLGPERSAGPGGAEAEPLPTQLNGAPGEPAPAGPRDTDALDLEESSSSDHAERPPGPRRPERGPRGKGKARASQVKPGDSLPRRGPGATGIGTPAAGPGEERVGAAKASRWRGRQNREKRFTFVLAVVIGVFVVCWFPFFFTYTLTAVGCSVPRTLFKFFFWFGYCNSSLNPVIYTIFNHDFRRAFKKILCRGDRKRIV

hP2Y6R = biological target: T2, hP2Y6R (Homo sapiens, UniProt Q15077); experiment: UDP (100 nM)-induced Ca2+ mobilization in hP2Y6R stably transfected 1321N1 astrocytoma cells; type: cell-based; settings: for IC50: UDP 100 nM, 3–4 independent triplicate determinations, read-out: IC50, hP2Y6R (Mean ± SEM)
T2 construct: expressed in transfected cells
T2 sequence (Q15077 whole entry): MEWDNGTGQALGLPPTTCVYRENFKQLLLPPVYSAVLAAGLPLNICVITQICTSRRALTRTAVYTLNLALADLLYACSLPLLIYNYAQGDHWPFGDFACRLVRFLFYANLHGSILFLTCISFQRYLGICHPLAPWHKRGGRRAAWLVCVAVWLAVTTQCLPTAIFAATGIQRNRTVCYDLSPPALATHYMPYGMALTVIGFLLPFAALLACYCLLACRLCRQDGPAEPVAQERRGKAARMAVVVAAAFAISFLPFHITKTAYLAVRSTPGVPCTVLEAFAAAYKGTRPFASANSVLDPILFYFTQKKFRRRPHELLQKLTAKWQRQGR
Experimental: To screen for P2Y6R antagonist activity, PLC-mediated calcium mobilization assays were carried out using the recombinant human P2Y6R stably expressed in 1321N1 astrocytoma cells (hP2Y6R-1321N1) according to the previously published method. Briefly, the hP2Y6R-1321N1 cells were seeded on 96-well black plates and incubated overnight. The antagonists were pretreated along with the FLIPR dye (Calcium 6 assay kit, Molecular Devices, San Jose, CA, USA) containing 5 mM probenecid for 45 min, prior to agonist addition followed by an immediate intracellular Ca^2+ measurement. […] Here, probenecid was used as an organic anion transporter inhibitor to prevent the efflux of the dye into the extracellular environment. During incubation, the membrane permeable dye enters the cytoplasm and cleaves the acetoxymethyl protection to enable Ca^2+ binding. When the P2Y6R was activated by UDP, the increased calcium concentration was directly measured by intracellular changes in the fluorescence intensity with a Fluorescent Imaging Plate Reader (FLIPR^TETRA, Molecular Devices, San Jose, CA, USA).

other P2YRs = settings: at high µM concentrations; ref [29],[43]; cited from earlier work
D5 = biological target: T3, D5 (Homo sapiens, UniProt P21918); experiment: PDSP binding assay, D5
T3 construct: NIMH Psychoactive Drug Screening Program (PDSP)
T3 sequence (P21918 whole entry): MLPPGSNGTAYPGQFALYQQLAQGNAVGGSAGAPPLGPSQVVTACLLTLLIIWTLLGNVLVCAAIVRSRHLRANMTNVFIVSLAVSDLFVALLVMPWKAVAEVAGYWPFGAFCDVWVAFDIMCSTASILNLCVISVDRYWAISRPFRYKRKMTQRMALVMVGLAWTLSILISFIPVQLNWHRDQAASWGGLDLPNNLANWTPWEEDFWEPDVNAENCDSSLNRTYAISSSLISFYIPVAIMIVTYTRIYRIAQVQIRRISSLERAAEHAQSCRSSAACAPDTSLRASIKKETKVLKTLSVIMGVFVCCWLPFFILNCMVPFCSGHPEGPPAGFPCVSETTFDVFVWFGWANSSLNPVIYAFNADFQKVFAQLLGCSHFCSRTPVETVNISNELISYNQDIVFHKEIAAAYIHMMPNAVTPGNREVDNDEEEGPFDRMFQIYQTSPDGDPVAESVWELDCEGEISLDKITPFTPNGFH
From the text: (§1) Table S2. Off-target screening (to replace table later). We thank Dr. Bryan L. Roth (Univ. North Carolina at Chapel Hill) and National Institute of Mental Health's Psychoactive Drug Screening Program (Contract # HHSN-271-2008-00025-C) for screening data. Reference: Besnard et al.
(§2) Procedures: https://pdsp.unc.edu/pdspweb/content/UNC-CH%20Protocol%20Book.pdf […]
(§3) nucleosides were found at the following sites (human unless noted): 5HT1A, 5HT1B, 5HT1D, […]
(§4) β3, BZP rat brain site, D1, D2, D3, D4, D5, GABAA, H1, H2, H3, H4, M1, M2, M5, δ-opioid receptor (DOR), κ-opioid receptor (KOR), μ-opioid receptor (MOR), σ1, σ2, DAT, NET, SERT. Ki values […]
(§5) Compound # PDSP # Receptor LogKi Ki (nM)

hP2Y14R = biological target: T4, hP2Y14R (Homo sapiens, UniProt Q15391); experiment: whole-cell binding of fluorescent antagonist MRS4174 in CHO-hP2Y14R cells (flow cytometry); settings: for IC50: CHO-hP2Y14, competitive binding, flow cytometer
T4 construct: expressed in transfected cells
T4 sequence (Q15391 1-338): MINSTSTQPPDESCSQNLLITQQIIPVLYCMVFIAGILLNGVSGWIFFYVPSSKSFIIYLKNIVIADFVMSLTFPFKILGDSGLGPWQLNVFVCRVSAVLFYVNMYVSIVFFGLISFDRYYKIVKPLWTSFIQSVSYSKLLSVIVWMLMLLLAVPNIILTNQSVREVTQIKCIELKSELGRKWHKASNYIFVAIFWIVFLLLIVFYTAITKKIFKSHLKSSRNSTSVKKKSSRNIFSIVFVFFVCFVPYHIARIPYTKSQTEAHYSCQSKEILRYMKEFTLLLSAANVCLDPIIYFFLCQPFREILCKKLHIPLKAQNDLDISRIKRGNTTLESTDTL

5-HT1D = biological target: T5, 5-HT1D (Homo sapiens, UniProt P28221); experiment: PDSP binding assay, 5-HT1D
T5 construct: NIMH Psychoactive Drug Screening Program (PDSP)
T5 sequence (P28221 whole entry): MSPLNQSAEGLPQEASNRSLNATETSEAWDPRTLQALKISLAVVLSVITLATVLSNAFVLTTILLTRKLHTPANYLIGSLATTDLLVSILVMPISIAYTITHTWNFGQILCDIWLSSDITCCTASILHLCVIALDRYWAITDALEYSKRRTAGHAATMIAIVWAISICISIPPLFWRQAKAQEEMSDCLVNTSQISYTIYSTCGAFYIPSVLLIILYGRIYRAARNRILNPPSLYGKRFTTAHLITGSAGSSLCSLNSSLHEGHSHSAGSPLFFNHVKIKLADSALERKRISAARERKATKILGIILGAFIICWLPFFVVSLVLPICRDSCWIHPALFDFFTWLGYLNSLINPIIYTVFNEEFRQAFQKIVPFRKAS
From the text: as §1, §2, §3, §4, §5

D1 = biological target: T6, D1 (Homo sapiens, UniProt P21728); experiment: PDSP binding assay, D1
T6 construct: NIMH Psychoactive Drug Screening Program (PDSP)
T6 sequence (P21728 whole entry): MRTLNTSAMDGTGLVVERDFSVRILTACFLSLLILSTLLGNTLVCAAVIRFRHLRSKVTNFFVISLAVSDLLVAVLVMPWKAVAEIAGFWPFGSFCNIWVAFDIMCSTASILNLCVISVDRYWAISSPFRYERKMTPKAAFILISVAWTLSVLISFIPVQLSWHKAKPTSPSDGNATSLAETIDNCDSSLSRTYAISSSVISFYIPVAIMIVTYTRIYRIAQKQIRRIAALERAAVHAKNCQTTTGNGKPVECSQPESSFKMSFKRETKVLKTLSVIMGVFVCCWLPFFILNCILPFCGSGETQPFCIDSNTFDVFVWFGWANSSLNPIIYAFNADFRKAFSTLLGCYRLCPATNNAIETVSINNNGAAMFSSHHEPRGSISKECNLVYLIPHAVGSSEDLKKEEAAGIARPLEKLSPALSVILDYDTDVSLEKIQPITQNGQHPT
From the text: as §1, §2, §3, §4, §5

H1 = biological target: T7, H1 (Homo sapiens, UniProt P35367); experiment: PDSP binding assay, H1
T7 construct: NIMH Psychoactive Drug Screening Program (PDSP)
T7 sequence (P35367 whole entry): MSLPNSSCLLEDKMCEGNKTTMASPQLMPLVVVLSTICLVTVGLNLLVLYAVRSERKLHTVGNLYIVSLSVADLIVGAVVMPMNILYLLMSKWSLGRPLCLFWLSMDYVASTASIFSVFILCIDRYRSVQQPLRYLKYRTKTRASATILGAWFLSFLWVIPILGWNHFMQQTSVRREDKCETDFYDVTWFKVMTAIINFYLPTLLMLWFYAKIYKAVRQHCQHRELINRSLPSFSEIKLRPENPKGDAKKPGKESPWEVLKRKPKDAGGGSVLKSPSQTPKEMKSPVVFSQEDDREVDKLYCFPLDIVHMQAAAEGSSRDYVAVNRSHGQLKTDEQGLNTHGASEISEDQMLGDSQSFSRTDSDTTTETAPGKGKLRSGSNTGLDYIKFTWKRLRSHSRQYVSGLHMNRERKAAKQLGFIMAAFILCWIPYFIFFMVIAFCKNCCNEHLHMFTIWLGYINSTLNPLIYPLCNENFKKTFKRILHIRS
From the text: as §1, §2, §3, §4, §5

α2A [2] = biological target: T1, α2A; experiment: PDSP binding assay, α2A
From the text: as §1, §2, §3, §4, §5

α2B = biological target: T8, α2B (Homo sapiens, UniProt P18089); experiment: PDSP binding assay, α2B; settings: mean, n = 2
T8 construct: NIMH Psychoactive Drug Screening Program (PDSP)
T8 sequence (P18089 1-450): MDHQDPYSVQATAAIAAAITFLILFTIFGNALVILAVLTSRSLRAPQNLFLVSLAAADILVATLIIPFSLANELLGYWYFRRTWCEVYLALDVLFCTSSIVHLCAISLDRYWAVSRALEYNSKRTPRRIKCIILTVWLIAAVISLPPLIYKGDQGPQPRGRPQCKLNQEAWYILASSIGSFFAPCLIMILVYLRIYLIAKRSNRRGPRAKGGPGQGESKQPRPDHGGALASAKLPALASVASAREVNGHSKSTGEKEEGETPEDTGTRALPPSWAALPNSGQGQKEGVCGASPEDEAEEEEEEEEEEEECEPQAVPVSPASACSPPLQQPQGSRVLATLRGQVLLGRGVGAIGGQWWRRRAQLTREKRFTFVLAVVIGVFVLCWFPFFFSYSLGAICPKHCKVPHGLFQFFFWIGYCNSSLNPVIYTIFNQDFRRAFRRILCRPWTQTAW
From the text: as §1, §2, §3, §4, §5

[3] = system: 45 target sites (receptors, channels, and transporters); experiment: PDSP off-target binding screen at 45 target sites; design: species or system human; settings: PDSP binding assays
From the text: as §1, §2, §3, §4, §5

HeLa cells = experiment: MTT cell viability assay, HeLa cells; type: cell-based, human; settings: for % survival: 12 h, MTT
Experimental: (§6) The 1321N1 astrocytoma (hP2Y6R-overexpressing) and HeLa (non-transfected) cell lines were cultured in Dulbecco’s modified Eagle’s medium (DMEM, HyClone, Logan, UT, USA) supplemented with 5% heat-inactivated fetal bovine serum (FBS, HyClone, UT, USA), 100 U/mL penicillin, and 100 µg/mL streptomycin in 5% CO2 at 37 °C. The cell viability was determined using an MTT kit (Sigma, St. Louis, MO, USA) according to the manufacturer’s instructions. Briefly, 1 × 10^4 cells were seeded in triplicate in 96-well plates. The hP2Y6R-astrocytoma and HeLa cells were treated with a P2Y6R agonist and antagonists at a range of concentrations and incubated for 12 h. The cell viability was measured at 490 nm using a SpectraMax-M5 Spectrometer (Molecular Devices, San Jose, CA, USA).

P2Y6R = P2Y6R agonist; no reference given; read-out: EC50 in PLC activation; cited from earlier work
[4] = system: hP2Y6R-1321N1 human astrocytoma cells; experiment: MTT cell viability assay, hP2Y6R-1321N1 astrocytoma cells; type: cell-based; settings: for % survival: P2Y6R-astrocytoma, 12 h, MTT
Experimental: as §6

α2C = biological target: α2C; design: method as in Jung et al., 2021 and 2022 [30],[40]; settings: PDSP; ref Jung et al., 2021 and 2022 [30],[40]; cited from earlier work
µ-opioid receptor (MOR) = biological target: µ-opioid receptor (MOR); design: method as in Jung et al., 2021 and 2022 [30],[40]; settings: PDSP; ref Jung et al., 2021 and 2022 [30],[40]; cited from earlier work
mP2Y6 = system: mP2Y6; design: method as in PMID 37078976; settings: Figure 1; ref [33]; cited from earlier work
[5] = PDSP, mean, n = 2, read-out: Ki, D5
[6] = PDSP, mean, n = 2, read-out: Ki, 5-HT1D
[7] = PDSP, mean, n = 2, read-out: Ki, H1
[8] = PDSP, mean, n = 2, read-out: Ki, α2A

S=C=Nc1cccc(NC(=S)NCCCCNC(=S)Nc2cccc(N=C=S)c2)c1 [Compound 1]
IC50 (rP2Y6): 98 nM

CC[Si](C#Cc1ccc2c(c1)C=C([N+](=O)[O-])C(C(F)(F)F)O2)(CC)CC (stereo not shown) [Compound 13]
Ki (α2A [1]): 2000 nM
IC50 (hP2Y6R): 604 ± 239 nM
inhibition at most other P2YRs (other P2YRs): minor

CC(C)(C)OC(=O)NCCCCC#Cc1ccc2c(c1)C=C([N+](=O)[O-])C(C(F)(F)F)O2 (stereo not shown) [Compound 24, tert-Butyl (6-(3-nitro-2-(trifluoromethyl)-2H-chromen-6-yl)hex-5-yn-1-yl)carbamate]
Ki (D5; [5]): 2400 nM
Ki (D5; Table S2, single determinations, read-out: Ki (nM), D5): 1360 nM and 3420 nM
IC50 (hP2Y14R): 5600 ± 700 nM
fold selective compared to the hP2Y14R (hP2Y14R; hP2Y6R vs hP2Y14R): 10 fold
Ki (5-HT1D; [6]): 3200 nM
Ki (5-HT1D; Table S2, single determinations, read-out: Ki (nM), 5-HT1D): 3260 nM and 3040 nM
IC50 (hP2Y6R): 568 ± 163 nM
Ki (D1; PDSP, mean, n = 2, read-out: Ki, D1): 1900 nM
Ki (D1; Table S2, single determination, read-out: Ki (nM), D1): 1600 nM
Ki (H1; [7]): 1000 nM
Ki (H1; Table S2, single determinations, read-out: Ki (nM), H1): 631 nM and 1430 nM
Ki (α2A [2]; [8]): 160 nM
Ki (α2A [2]; Table S2, single determinations, read-out: Ki (nM), Alpha2A): 148 nM and 168 nM
Ki (α2B): 460 nM

CC(C)(C)C(=O)NCCCCCCCC#Cc1ccc2c(c1)C=C([N+](=O)[O-])C(C(F)(F)F)O2 (stereo not shown) [Compound 31]
off-target interactions at 45 target sites [3]: only two weak interactions
IC50 (hP2Y6R): 17300 ± 5200 nM
Ki (α2A [2]; [8]): 3500 nM

O=c1[nH]c(=O)n([C@@H]2O[C@H](COP(=O)(O)OP(=O)(O)O)[C@@H](O)[C@H]2O)cc1I [MRS2693, 5-iodouridine-5′-O-diphosphate, reference compound]
% survival (HeLa cells; 1 µM): 105%
% survival (HeLa cells; 5 µM): 106%
% survival (HeLa cells; 10 µM): 104%
EC50 (P2Y6R): 15 nM
% survival ([4]; 1 µM): 98%
% survival ([4]; 5 µM): 100%
% survival ([4]; 10 µM): 101%
effect on viability ([4]; astrocytoma cells, ≤10 µM, 12 h exposure): no significant effect

O=c1ccn([C@@H]2O[C@H](COP(=O)(O)OP(=O)(O)O)[C@@H](O)[C@H]2O)c(=O)[nH]1 [UDP, uridine 5′-diphosphate]
EC50 (P2Y6R): 13 nM

O=C(O)c1ccc(C#Cc2ccc3c(c2)C=C([N+](=O)[O-])C(C(F)(F)F)O3)cc1 (stereo not shown) [Compound 17]
Ki (α2C): 2600 nM
inhibition at most other P2YRs (other P2YRs): minor
Ki (µ-opioid receptor (MOR)): 4200 nM

O=[N+]([O-])C1=Cc2cc(F)cc(F)c2OC1C(F)(F)F (stereo not shown) [Compound 2b]
off-target interactions at 45 target sites [3]: no off-target interactions and none
IC50 (mP2Y6): 17800 nM
% survival (HeLa cells; 0.1 µM): 87%
% survival (HeLa cells; 0.5 µM): 86%
% survival (HeLa cells; 1 µM): 87%
% survival (HeLa cells; 5 µM): 84%
% survival (HeLa cells; 10 µM): 78%
inhibition of viability (HeLa cells; at 10 µM, 12 h exposure): 22%
% survival ([4]; 0.1 µM): 104%
% survival ([4]; 0.5 µM): 104%
% survival ([4]; 1 µM): 105%
% survival ([4]; 5 µM): 98%
% survival ([4]; 10 µM): 88%
inhibition of viability ([4]; hP2Y6R-1321N1 cells, at 10 µM, 12 h exposure): 12%

CC(C)(C)OC(=O)NCCCCCCCC#Cc1cccc2c1OC(C(F)(F)F)C([N+](=O)[O-])=C2 (stereo not shown) [Compound 37]
Ki (D5; [5]): 4200 nM
IC50 (hP2Y14R): 31200 ± 12200 nM
Ki (5-HT1D; [6]): 3500 nM
IC50 (hP2Y6R): 4960 ± 1960 nM
fold lower affinity compared to 30 (hP2Y6R; hP2Y6R IC50 ratio): 31 fold
Ki (H1; [7]): 7300 nM
Ki (α2A [2]; [8]): 5200 nM
Ki (α2B): 4800 nM
